Reference: patent publication US10842795B1, “Chemosensitization of resistant Pseudomonas aeruginosa by synthetically related compounds” (King Abdulaziz University, priority 2020, dated 2020)
“Also recorded” adds a separate entry of the source.

Key:
MDR-Pa = assay: Pseudomonas aeruginosa liquid killing assay on C. elegans (chemosensitization of MDR-Pa); assay type: in vivo; settings: for C. elegans + 100 μg/mL CPX) MIC: MDR-Pa infected C. elegans, in presence of 100 μg/mL CPX; for Survival x/50 in presence of CAB compounds at 200 μM: 200 μM CAB compound + 100 μg/mL CPX; for Activity in C. elegans model (survival and motility), in words: MDR-Pa infected C. elegans with CPX; for Survival x/50 in presence of CAB compounds at 25 μM: 25 μM CAB compound + 100 μg/mL CPX; for Survival x/50 in presence of CAB compounds at 50 μM: 50 μM CAB compound + 100 μg/mL CPX; for Survival x/50 in presence of CAB compounds at 100 μM: 100 μM CAB compound + 100 μg/mL CPX
Description: In vivo EPI activity of compounds that illustrated an MIC against P. aeruginosa. ATCC 27853 were tested on C. elegans using the liquid killing assay (LKA). Briefly, eggs of C. elegans were hatched on lawns of E. coli OP50 on nematode growth medium agar. Worms were grown to L4 stage by incubation at 25° C. for 48 h. Worms were washed off the plate with M9 buffer, deposited onto lawns of E. coli OP50 or P. aeruginosa. ATCC 27853 and the plates were incubated at 25° C. for 16 h. OP50-fed or P. aeruginosa-infected worms were washed from the plate with M9 buffer, allowed to settle to bottom of Eppendorf tubes, and rinsed with M9 buffer. The M9 was then removed and worms were resuspended in 5 mL liquid killing medium (80% M9 and 20% nematode growth medium (NGMII)) and 95 μL aliquots with approximately 50 worms were added to the wells of 96-microtiter plates with or without test compounds at the indicated concentration ranges (starting from 200 μM) in presence of sub-MIC concentration of CPX (100 μg/mL). As a control, worms treated without test compound contained an equivalent amount of DMSO in the assay medium. Plates were scored for live worms at the time of inoculation and incubated at 37° C. for 24 h. Using a dissecting microscope, worms were considered dead if they appeared straight, and alive if they appeared S-shaped and were moving.
C. elegans is a very efficient whole organism test. The worm develops several reliable disease pathways and can be recruited to measure therapeutic activities of compounds. The technique bears several advantages such as low cost, there is no need for special growth or assay conditions (c.f. animal house and expensive caring for in vivo test on mammalians such as rats) (Kaletta and Hengartner 2006) and there are no ethical issues with consuming animals. In our particular assay, C. elegans can be infected and killed by Pa, and therefore, can be used for identifying compounds that help to protect the worm from pathogenic bacteria (Ewbank and Zugasti 2011).
We used the assay to measure the CAB N-alkyl derivatives CAB-30, CAB-35, CAB-36, CAB-37, CAB-38, CAB-40, CAB-41, CAB-42 and CAB-43 ability to protect C. elegans against MDR-Pa.

[1] = Solubility (qualitative statement); assay type: physicochemical; settings: in words
Pgp [2] = target: T1, Pgp (Homo sapiens, UniProt P08183); assay: Rhodamine123 (R123) efflux assay in K562 Adr500 cells; assay type: cell-based; settings: in words
T1 construct: highly resistant cells K562 Adr500 which keep R123 outside the cancer cells; endogenous in cells; host or cells: K562 Adr500 (adriamycin-resistant human leukemia K562 cells)
Description: The cells (10^5) were counted and suspended in 1 ml RPMI medium. The appropriate CAB derivative (0.5 μM) was added to the medium alongside 1, 5 or 10 μM WYE-354, or 100 μM Verapamil as control inhibitors and incubated for 60 min at 37° C. Upon dye uptake, the cells were pelleted by centrifugation at 250×g for 5 min at 4° C. in a cold centrifuge. The harvested cells were washed twice with 1× ice-cold PBS and resuspended in 1 ml RPMI with the inhibitors alone, and reincubated for an additional 60 min at 37° C. to allow the efflux of R123. The cells were subsequently washed twice with ice-cold PBS and analyzed immediately on a BD FACSAria III. A minimum of 5,000 events were recorded for analysis.
We studied the selectivity of CAB-38 by testing its Pgp inhibition (human efflux protein) activities. This assay was performed by measuring the retention of Rhodamine123 (R123) dye (substrate of Pgp) in human leukemia cell lines K562. The negative control of experiment is composed of highly resistant cells K562 Adr500 which keep R123 outside the cancer cells (FIG. 3A). The positive control is performed by repeating the same experiment after incubation of cells with everolimus sub-cytotoxic dose, a powerful Pgp inhibitor (FIG. 3B). The test compound was incubated with K562 Adr500 and then added R123 dye. […]

[3] = test system: Pseudomona aeruginosa ATCC 27853; assay: Cup diffusion (agar plate diffusion) assay of ciprofloxacin chemosensitization; assay type: cell-based, Pseudomonas aeruginosa; settings: 200 μM compound with CPX, MDR-Pa, in words
Description: ^1H NMR (400 MHz, DMSO-d6) δ 9.88 (s, 1H), 7.66 (dd, J=1.51, 7.78 Hz, 2H), 7.53-7.62 (m, 3H), 7.43-7.51 (m, 3H), 7.37-7.43 (m, 2H), 7.29-7.37 (m, 1H), 7.07-7.12 (m, 2H), 6.95-7.02 (m, 1H), 6.87 (d, J=15.81 Hz, 1H), 4.19 (q, J=7.11 Hz, 2H), 1.25 (t, J=7.15 Hz, 3H). Biological Screening Efflux Pump Inhibition (EPI) Screening Methodology: Bacterial isolate. Pseudomona aeruginosa ATCC 27853 stored at −70° C. in Trypticase soy broth supplemented with 10% glycerol was recovered for testing. Tests performed. Cup diffusion assay was performed to assess interaction between Ciprofloxacin CPX and 24 compounds. CPX minimum inhibitory concentrations (MICs) were determined alone and in the presence of each compound at concentrations ranging from 2000 to 62.5 μg/mL against P. aeruginosa. A fixed concentration of 200 μM of each compound was selected for testing.
Briefly, Petri dishes (90 mm) were filled with 25 mL Muller-Hinton agar containing 1 mL bacterial culture (1×10^6 CFU/mL) and 200 μM of each compound. The strains were inoculated separately. Six holes (5 mm in diameter) were made in the seeded agar plates. The holes were then filled with 20 μL of each concentration of CPX, plate with CPX only was served as control. Dishes were then incubated for 24 h at 37° C. The MIC was recorded as the lowest concentration that inhibits the growth of the bacterial strains. […] All assays were performed in triplicate and MIC's values are given in μg/mL. The inhibition zone was measured using a caliper.
The agar plate diffusion test (Zou, He et al. 2019) was utilized to qualitatively evaluate the ciprofloxacin killing effect on MDR-Pa in absence (control) and in presence of our designed efflux pump inhibitors.

Pgp [4] = target: T1, Pgp; settings: reported earlier (El-Araby, Omar et al. 2017); cited from earlier work

T1 sequence (P08183 whole entry): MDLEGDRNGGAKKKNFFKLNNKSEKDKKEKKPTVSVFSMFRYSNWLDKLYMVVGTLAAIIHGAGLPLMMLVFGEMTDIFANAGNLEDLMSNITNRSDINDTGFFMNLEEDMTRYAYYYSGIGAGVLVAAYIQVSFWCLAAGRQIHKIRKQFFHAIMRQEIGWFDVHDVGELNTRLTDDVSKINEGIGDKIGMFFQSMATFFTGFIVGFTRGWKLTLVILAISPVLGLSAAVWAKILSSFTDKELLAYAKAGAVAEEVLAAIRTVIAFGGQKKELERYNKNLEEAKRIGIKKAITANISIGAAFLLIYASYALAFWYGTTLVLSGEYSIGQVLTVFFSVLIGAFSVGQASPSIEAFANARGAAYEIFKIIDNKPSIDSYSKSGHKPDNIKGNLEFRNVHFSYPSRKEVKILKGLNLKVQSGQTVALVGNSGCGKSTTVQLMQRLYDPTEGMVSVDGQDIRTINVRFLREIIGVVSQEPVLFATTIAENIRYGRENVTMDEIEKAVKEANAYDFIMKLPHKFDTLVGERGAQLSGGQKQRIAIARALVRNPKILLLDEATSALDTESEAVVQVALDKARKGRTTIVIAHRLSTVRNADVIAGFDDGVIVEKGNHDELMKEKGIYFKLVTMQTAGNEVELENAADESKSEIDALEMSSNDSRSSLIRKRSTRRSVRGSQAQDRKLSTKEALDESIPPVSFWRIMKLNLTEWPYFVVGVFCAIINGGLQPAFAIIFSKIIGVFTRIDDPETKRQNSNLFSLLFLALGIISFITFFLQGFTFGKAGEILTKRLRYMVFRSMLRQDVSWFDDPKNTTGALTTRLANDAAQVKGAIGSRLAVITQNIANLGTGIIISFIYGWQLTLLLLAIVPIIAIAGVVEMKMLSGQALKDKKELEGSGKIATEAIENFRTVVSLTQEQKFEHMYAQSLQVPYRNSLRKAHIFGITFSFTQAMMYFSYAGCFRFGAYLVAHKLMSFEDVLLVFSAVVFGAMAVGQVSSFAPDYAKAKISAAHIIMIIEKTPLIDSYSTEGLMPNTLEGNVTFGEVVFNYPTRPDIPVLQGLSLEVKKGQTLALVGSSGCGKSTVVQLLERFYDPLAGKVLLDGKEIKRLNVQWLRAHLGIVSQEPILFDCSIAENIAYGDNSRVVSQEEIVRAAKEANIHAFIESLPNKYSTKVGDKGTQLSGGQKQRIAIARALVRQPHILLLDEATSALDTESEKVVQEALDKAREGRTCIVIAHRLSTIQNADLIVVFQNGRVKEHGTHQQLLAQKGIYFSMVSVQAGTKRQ

SMILES	C. elegans + 100 μg/mL CPX) MIC (MDR-Pa)	Survival x/50 in presence of CAB compounds at 200 μM (MDR-Pa)	Survival x/50 in presence of CAB compounds at 100 μM (MDR-Pa)	Enhancement of CPX antibiotic activity (chemosensitization, inhibition zone) [3]	further results
CC(C)NC(=O)/C(=C/C=C/c1ccccc1)NC(=O)C=Cc1ccccc1 [CAB-43, (2Z,4E)-2-cinnamamido-N-isopropyl-5-phenylpenta-2,4-dienamide]	Died	–	–	–	–
CNC(=O)/C(=C/C=C/c1ccccc1)NC(=O)C=Cc1ccccc1 [CAB-35, (2Z,4E)-2-cinnamamido-N-methyl-5-phenylpenta-2,4-dienamide]	200 µM	15 x/50	–	–	–
O=C(C=Cc1ccccc1)N/C(=C\C=C\c1ccccc1)C(=O)NCCO [CAB-37, (2Z,4E)-2-cinnamamido-N-(2-hydroxyethyl)-5-phenylpenta-2,4-dienamide]	50 µM	–	–	–	Activity in C. elegans model (survival and motility), in words (MDR-Pa): did not show any activity
O=C(C=Cc1ccccc1)N/C(=C\C=C\c1ccccc1)C(=O)N1CCOCC1 [CAB-38, N-((2Z,4E)-1-morpholino-1-oxo-5-phenylpenta-2,4-dien-2-yl)cinnamamide]	25 µM	40 x/50	10 x/50	–	Solubility [1]: improved solubility; Pgp inhibition (retention of R123 dye in cells) (Pgp [2]): poor inhibitor of Pgp; also recorded: no inhibition observed; also recorded: not retention of R123 dye; Survival x/50 in presence of CAB compounds at 25 μM (MDR-Pa): 3 x/50; Survival x/50 in presence of CAB compounds at 50 μM (MDR-Pa): 5 x/50
CCOC(=O)/C(=C/C=C/c1ccccc1)NC(=O)C=Cc1ccccc1 [CAB-21, Ethyl (2Z,4E)-2-Cinnamamido-5-Phenylpenta-2,4-Dienoate]	–	–	–	weak activities	–
CO[C@H]1C[C@@H]2CC[C@@H](C)[C@@](O)(O2)C(=O)C(=O)N2CCCC[C@H]2C(=O)O[C@H]([C@H](C)C[C@@H]2CC[C@@H](OCCO)[C@H](OC)C2)CC(=O)[C@H](C)/C=C(\C)[C@@H](O)[C@@H](OC)C(=O)[C@H](C)C[C@H](C)/C=C/C=C/C=C/1C [everolimus, reference compound]	–	–	–	–	Pgp inhibition (retention of R123 dye in cells) (Pgp [2]): large increase of R123 dye
N#Cc1cccc(NC(=O)/C(=C/C=C/c2ccccc2)NC(=O)C=Cc2ccccc2)c1 [CAB-36, (2Z,4E)-2-cinnamamido-N-(3-cyanophenyl)-5-phenylpenta-2,4-dienamide]	Died	–	–	moderate chemosensitization activities	Solubility [1]: poor solubility
O=C(C=Cc1ccccc1)N/C(=C\C=C\c1ccccc1)C(=O)N1CCCC1 [CAB-41, N-((2Z,4E)-1-oxo-5-phenyl-1-(pyrrolidin-1-yl)penta-2,4-dien-2-yl)cinnamamide]	50 µM	25 x/50	7 x/50	–	Survival x/50 in presence of CAB compounds at 50 μM (MDR-Pa): 5 x/50
CCCCNC(=O)/C(=C/C=C/c1ccccc1)NC(=O)C=Cc1ccccc1 [CAB-42, (2Z,4E)-N-butyl-2-cinnamamido-5-phenylpenta-2,4-dienamide]	100 µM	45 x/50	5 x/50	–	–
CCCNC(=O)/C(=C/C=C/c1ccccc1)NC(=O)/C=C/c1ccccc1 [CAB-30]	1.56 µM	50 x/50	40 x/50	highest chemosensitization; also recorded: most potent	Pgp inhibition activities (Pgp [4]): undesired Pgp inhibition activities; Survival x/50 in presence of CAB compounds at 1.562 μM (MDR-Pa; 1.562 μM CAB compound + 100 μg/mL CPX): 20 x/50; Survival x/50 in presence of CAB compounds at 3.125 μM (MDR-Pa; 3.125 μM CAB compound + 100 μg/mL CPX): 20 x/50; Survival x/50 in presence of CAB compounds at 6.25 μM (MDR-Pa; 6.25 μM CAB compound + 100 μg/mL CPX): 20 x/50; Survival x/50 in presence of CAB compounds at 12.5 μM (MDR-Pa; 12.5 μM CAB compound + 100 μg/mL CPX): 20 x/50; Survival x/50 in presence of CAB compounds at 25 μM (MDR-Pa): 40 x/50; Survival x/50 in presence of CAB compounds at 50 μM (MDR-Pa): 40 x/50; Activity in C. elegans model (survival and motility), in words (MDR-Pa): highly potent
COc1ccc(NC(=O)/C(=C/C=C/c2ccccc2)NC(=O)C=Cc2ccccc2)cc1 [CAB-32, (2Z,4E)-2-cinnamamido-N-(4-methoxyphenyl)-5-phenylpenta-2,4-dienamide]	–	–	–	weak activities	–
COc1cccc(NC(=O)/C(=C/C=C/c2ccccc2)NC(=O)C=Cc2ccccc2)c1 [CAB-40, (2Z,4E)-2-cinnamamido-N-(3-methoxyphenyl)-5-phenylpenta-2,4-dienamide]	200 µM	25 x/50	–	weak activities	–
O=C(O)c1cn(C2CC2)c2cc(N3CCNCC3)c(F)cc2c1=O [Control (Cipro Only), ciprofloxacin, reference compound]	Died	–	–	–	–
